Two compounds from patent publication US5328921A, “Aryl pyridinium compounds which are useful in treating shock” (American Cyanamid Company, priority 1992, dated 1994) can be followed below.

Where “and” joins values, the source holds several entries; their conditions need not be identical. Identical values can stand only once.

The test system of assay [1] is PAF induced lethality in mice. Put plainly: PAF induced lethality in mice. Type of assay: in vivo. To be noted: Mus musculus; 0.5 mg/kg IP 1/2 hour before lethal PAF I.V. challenge; alive after 2 hours; control (saline) 10; read-out: % Survival. As for the experimental part:
PAF given I.V. to mice causes an immediate hypotensive shock leading to death in 1 hour or less. Compounds are given intraperitoneally at 1/2 hour prior to the PAF challenge. Animals alive after 2 hours are counted and the activity of test compounds expressed as survival corrected for any control (saline treated) animals which survived the PAF challenge.

For a further assay, the target named is T1, PAF receptor (Oryctolagus cuniculus, UniProt G1TEI7).
T1 construct: centrifuged at 800 rpm for 10-15 minutes at room temperature to recover the platelet rich plasma (PRP); endogenous in cells; host or cells: rabbit platelets (platelet rich plasma from citrated blood of male New Zealand White rabbits)
Put plainly: In vitro PAF antagonism: inhibition of PAF induced platelet aggregation in rabbit platelet rich plasma. The note with it: rabbit PRP. Format: cell-based, rabbit (male New Zealand White). The method, then: Test compounds are evaluated as PAF receptor antagonists in vitro by measuring inhibition of PAF (platelet activating factor) induced platelet aggregation. Platelet aggregation is measured by a modification of the method described in A. Wissnet, et. al., J. Med. Chem., 27 1174, 1984.
Approximately 120-240 ml of blood is collected by cardiac puncture from unanesthetized male New Zealand White rabbits (Whaley's Summit View Farms, Belvedere, N.J.) with the use of 3.2% sodium citrate anticoagulant (1 part of citrate/10 parts of blood). All syringes and pipers are plastic. The blood is gently mixed and immediately centrifuged at 800 rpm for 10-15 minutes at room temperature to recover the platelet rich plasma (PRP). Platelet poor plasma (PPP) is prepared by centrifuging PRP at 2800 rpm for 10 minutes at room temperature.
Dilutions (113000) of PRP in Isoton, diluent are made and platelet counts are determined on a Coulter Thrombocounter which is standardized with platelet reference standards (Interscience Platelet Control, Portland, Oreg.). PRP platelet counts are adJusted to approximately 400,000-500,000 platelets/11 by the addition of PPP.
L-PAF (Platelet Activating Factor) is obtained from Calbiochem. A stock solution of 1-2 E-3M is prepared in 10% ethanol in water or 100% methanol and serial working dilutions are made using saline. E-3M stock solutions of test compounds are prepared in 100% methanol and serially diluted in PBS. Sonication of samples before testing in biological screens assists in the solubility of compounds in the liquid medium. All solutions are made up in plastic tubes, stored on ice and protected from heat and light. Solutions are prepared fresh or frozen at -20° C. and used within 48 hours.
Incubation mixtures consisted of 400 11 PRP, 50 11 of saline diluent or test compound and 50 11 of PAF agohist. More specifically, 40011 of PRP is stabilized in a cuvette for 1-2 minutes at 37° C. in the aggregometer to achieve a stable baseline, then 50 11 of saline or test compound is added and incubated for 5 minutes before addition of the challenge concentration of PAF. A submaximal concentration is determined from the dose response curve for PAF for that experiment. In general, the challenge concentration is 5E-8 or 1E-7M. Aggregation is monitored for 5 minutes. Samples containing test compound or diluent are run simultaneously for comparison. Test compounds are initially evaluated at a screening concentration of 1E-SM.
The recording equipment consists of a dual channel Chronolog aggregometer connected to a dual channel 10MV full scale deflection Omniscribe chart recorder (Houston Instruments). The chart recorder is calibrated daily with the use of a suspension of Bio-Rad latex beads (S-X 12 400 mesh) which has a density slightly greater than rabbit PRP. The bead suspension is used to set the 0% light transmission mark and clear water is used to set the 100% light transmission mark. These limits defined a full scale deflection. The aggregation traces are analyzed by a digitizing method (C. Kohler and B. Zoltan, J. Pharm. Methods, 12, 113, 1984) with x, y coordinate data stored in a computer file. A suitable program computes parameters of interest such as the magnitude of aggregation.

T1 sequence (G1TEI7 1-342): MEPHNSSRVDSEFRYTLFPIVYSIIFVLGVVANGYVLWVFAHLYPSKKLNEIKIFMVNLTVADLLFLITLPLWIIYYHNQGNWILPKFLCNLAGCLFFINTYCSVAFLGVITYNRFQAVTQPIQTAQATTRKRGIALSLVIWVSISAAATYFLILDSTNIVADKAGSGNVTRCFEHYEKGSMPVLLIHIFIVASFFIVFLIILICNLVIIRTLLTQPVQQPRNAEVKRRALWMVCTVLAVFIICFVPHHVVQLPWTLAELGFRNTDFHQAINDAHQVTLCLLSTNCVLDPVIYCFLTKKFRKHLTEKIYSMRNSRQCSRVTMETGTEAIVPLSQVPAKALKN

For `CCCCCCCCCCCCCCOc1ccc(C(=O)N(Cc2cccc[n+]2CC)C(C)=O)cc1OC.[I-]` [2-[[Acetyl[3-methoxy-4-(tetradecyloxy)benzoyl]amino]-methyl]-1-ethylpyridinium iodide], in assay [1], the responders at 0.5 mg/kg was determined as 29%. In addition, the “% INH (% of inhibition of PAF induced platelet aggregation)” value on PAF receptor (Dose 1.00E-05 M, PAF challenge 5.00E-08 M) came out at 95%. For the same compound, on PAF receptor (PAF challenge 5.00E-08 M), the half-inhibitory concentration (IC50) is 70.3 nM and 240 nM.

For the compound `CCCCCCCCCCCCCCOc1ccc(C(=O)N(Cc2cccc[n+]2C)C(C)=O)cc1C(C)(C)C` [2-[[Acetyl[3-(1,1-dimethylethyl)-4-(tetradecyloxy)-benzoyl]amino]methyl]-1-methylpyridinium iodide], the responders at 0.5 mg/kg in assay [1] was found to be 60%. Besides, the half-inhibitory concentration (IC50) on PAF receptor (PAF challenge 1.00E-07 M) was 14.1 nM and 36 nM; at PAF receptor (PAF challenge 5.00E-08 M) it was 21.5 nM.

One may read the IC50 as the midpoint of a concentration-inhibition curve. A low value points to greater potency.
